Measurements published in patent US10597388B2, “Pyridazinone herbicides” (FMC CORPORATION, priority 2014, dated 2020).

Assays:
Assay type in all cases: in vivo
[1] = tested on: crabgrass, large (large crabgrass, Digitaria sanguinalis); assay: Test C greenhouse herbicide test, pre- and postemergence
From the text: (§1) Seeds of plant species selected from blackgrass (Alopecurus myosuroides), ryegrass, Italian (Italian ryegrass, Lolium multiflorum), wheat (winter wheat, Triticum aestivum), galium (catchweed bedstraw, Galium aparine), corn (Zea mays), large crabgrass, large (large crabgrass, Digitaria sanguinalis), foxtail, giant (giant foxtail, Setaria faberii), johnsongrass (Sorghum halepense), lambsquarters (Chenopodium album), morningglory (Ipomoea coccinea), nutsedge, yellow (yellow nutsedge, Cyperus esculentus), pigweed (Amaranthus retroflexus), ragweed (common ragweed, Ambrosia elatior), soybean (Glycine max), barnyardgrass (Echinochloa crus-galli), oilseed rape (Brassica napus), waterhemp (common waterhemp, Amaranthus rudis), and velvetleaf (Abutilon theophrasti) were planted into a blend of loam soil and sand and treated preemergence with test chemicals formulated in a non-phytotoxic solvent mixture which included a surfactant.
(§2) At the same time, plants selected from these crop and weed species and also chickweed (common chickweed, Stellaria media), kochia (Kochia scoparia), and oat, wild (wild oat, Avena fatua), were planted in pots containing Redi-Earth® planting medium (Scotts Company, 14111 Scottslawn Road, Marysville, Ohio 43041) comprising spaghnum peat moss, vermiculite, wetting agent and starter nutrients and treated with postemergence applications of test chemicals formulated in the same manner. Plants ranged in height from 2 to 18 cm (1- to 4-leaf stage) for postemergence treatments. Treated plants and controls were maintained in a greenhouse for 13 to 15 d, after which time all species were compared to controls and visually evaluated. Plant response ratings, summarized in Table C, are based on a scale of 0 to 100 where 0 is no effect and 100 is complete control. A dash (-) response means no test result.

[2] = tested on: morningglory (Ipomoea coccinea); assay: as above
From the text: as §1, §2

[3] = tested on: oilseed rape (Brassica napus); assay: as above
From the text: as §1, §2

[4] = tested on: johnsongrass (Sorghum halepense); assay: as above
From the text: as §1, §2

[5] = tested on: waterhemp (common waterhemp, Amaranthus rudis); assay: as above
From the text: as §1, §2

[6] = tested on: foxtail, giant (giant foxtail, Setaria faberii); assay: as above
From the text: as §1, §2

corn (Zea mays) = assay: as above
From the text: as §1, §2

[7] = tested on: barnyardgrass (Echinochloa crus-galli); assay: as above
From the text: as §1, §2

[8] = tested on: blackgrass (Alopecurus myosuroides); assay: as above
From the text: as §1, §2

[9] = tested on: lambsquarters (Chenopodium album); assay: as above
From the text: as §1, §2

[10] = tested on: wheat (winter wheat, Triticum aestivum); assay: as above
From the text: as §1, §2

[11] = tested on: pigweed (Amaranthus retroflexus); assay: as above
From the text: as §1, §2

[12] = tested on: velvetleaf (Abutilon theophrasti); assay: as above
From the text: as §1, §2

[13] = tested on: nutsedge, yellow (yellow nutsedge, Cyperus esculentus); assay: as above
From the text: as §1, §2

[14] = tested on: oat, wild (wild oat, Avena fatua); assay: Test C greenhouse herbicide test, postemergence
Summary of the method: (§3)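 Steps: pot plants in peat-based medium; spray postemergence at 1- to 4-leaf stage; hold in greenhouse 13 to 15 d; score visually against controls from 0 (no effect) to 100 (complete control).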

kochia (Kochia scoparia) = assay: Test C greenhouse herbicide test, postemergence
Summary of the method: as §3

[15] = Postemergence, 31 g ai/ha, 0 to 100 scale (0 no effect, 100 complete control)
[16] = Postemergence, 125 g ai/ha, scale 0 to 100, 0 is no effect, 100 is complete control
[17] = Postemergence, 250 g ai/ha, scale 0 to 100, 0 no effect, 100 complete control, 13 to 15 d
[18] = Preemergence, 31 g ai/ha, scale 0 to 100, 0 is no effect, 100 is complete control
[19] = Preemergence, 62 g ai/ha, scale 0 to 100, 0 is no effect, 100 is complete control
[20] = Preemergence, 125 g ai/ha, scale 0 to 100, 0 is no effect, 100 is complete control
[21] = Preemergence, 250 g ai/ha, scale 0 to 100 (0 no effect, 100 complete control)
[22] = postemergence, 62 g ai/ha, scale 0 to 100, 0 no effect, 100 complete control

COc1nn(C)c(=O)c(-c2c(C)ccc3ccccc23)c1OC(=O)OC(C)C [Compound 36]
Crabgrass, Large plant response rating [1, 15]: 25
Plant response rating, Crabgrass, Large [1, 16]: 25
Plant response rating, Crabgrass, Large [1, 17]: 35
Plant response rating, Crabgrass, Large [1, 18]: 70
Plant response rating, Crabgrass, Large [1, 19]: 20
Plant response rating, Crabgrass, Large [1, 20]: 20
Crabgrass, Large plant response rating [1, 21]: 65
Crabgrass, Large plant response rating [1, 22]: 30
Morningglory plant response rating [2, 15]: 90
Plant response rating, Morningglory [2, 16]: 98
Plant response rating, Morningglory [2, 17]: 100
Plant response rating, Morningglory [2, 18]: 80
Plant response rating, Morningglory [2, 19]: 80
Plant response rating, Morningglory [2, 20]: 90
Morningglory plant response rating [2, 21]: 95
Morningglory plant response rating [2, 22]: 98
Oilseed Rape plant response rating [3, 15]: 40
Plant response rating, Oilseed Rape [3, 16]: 50
Plant response rating, Oilseed Rape [3, 17]: 90
Plant response rating, Oilseed Rape [3, 18]: 50
Plant response rating, Oilseed Rape [3, 19]: 60
Plant response rating, Oilseed Rape [3, 20]: 60
Oilseed Rape plant response rating [3, 21]: 95
Oilseed Rape plant response rating [3, 22]: 40
Johnsongrass plant response rating [4, 15]: 0
Plant response rating, Johnsongrass [4, 16]: 5
Plant response rating, Johnsongrass [4, 17]: 5
Plant response rating, Johnsongrass [4, 18]: 0
Plant response rating, Johnsongrass [4, 19]: 5
Plant response rating, Johnsongrass [4, 20]: 5
Johnsongrass plant response rating [4, 21]: 5
Johnsongrass plant response rating [4, 22]: 5
Waterhemp plant response rating [5, 15]: 85
Plant response rating, Waterhemp [5, 16]: 95
Plant response rating, Waterhemp [5, 17]: 98
Plant response rating, Waterhemp [5, 18]: 100
Plant response rating, Waterhemp [5, 19]: 100
Plant response rating, Waterhemp [5, 20]: 100
Waterhemp plant response rating [5, 21]: 100
Waterhemp plant response rating [5, 22]: 95
Foxtail, Giant plant response rating [6, 15]: 30
Plant response rating, Foxtail, Giant [6, 16]: 70
Plant response rating, Foxtail, Giant [6, 17]: 80
Plant response rating, Foxtail, Giant [6, 18]: 75
Plant response rating, Foxtail, Giant [6, 19]: 75
Plant response rating, Foxtail, Giant [6, 20]: 85
Foxtail, Giant plant response rating [6, 21]: 85
Foxtail, Giant plant response rating [6, 22]: 55
Corn plant response rating (corn (Zea mays); [15]): 0
Plant response rating, Corn (corn (Zea mays); [16]): 5
Plant response rating, Corn (corn (Zea mays); [17]): 5
Plant response rating, Corn (corn (Zea mays); [18]): 0
Plant response rating, Corn (corn (Zea mays); [19]): 0
Plant response rating, Corn (corn (Zea mays); [20]): 0
Corn plant response rating (corn (Zea mays); [21]): 0
Corn plant response rating (corn (Zea mays); [22]): 0
Barnyardgrass plant response rating [7, 15]: 15
Plant response rating, Barnyardgrass [7, 16]: 35
Plant response rating, Barnyardgrass [7, 17]: 40
Plant response rating, Barnyardgrass [7, 18]: 10
Plant response rating, Barnyardgrass [7, 19]: 25
Plant response rating, Barnyardgrass [7, 20]: 65
Barnyardgrass plant response rating [7, 21]: 70
Barnyardgrass plant response rating [7, 22]: 25
Blackgrass plant response rating [8, 15]: 5
Plant response rating, Blackgrass [8, 16]: 5
Plant response rating, Blackgrass [8, 17]: 20
Plant response rating, Blackgrass [8, 18]: 0
Plant response rating, Blackgrass [8, 19]: 30
Plant response rating, Blackgrass [8, 20]: 20
Blackgrass plant response rating [8, 21]: 30
Blackgrass plant response rating [8, 22]: 5
Lambsquarters plant response rating [9, 15]: 90
Plant response rating, Lambsquarters [9, 16]: 98
Plant response rating, Lambsquarters [9, 17]: 100
Plant response rating, Lambsquarters [9, 18]: 70
Plant response rating, Lambsquarters [9, 19]: 80
Plant response rating, Lambsquarters [9, 20]: 85
Lambsquarters plant response rating [9, 21]: 80
Lambsquarters plant response rating [9, 22]: 98
Wheat plant response rating [10, 15]: 0
Plant response rating, Wheat [10, 16]: 0
Plant response rating, Wheat [10, 17]: 5
Plant response rating, Wheat [10, 18]: 0
Plant response rating, Wheat [10, 19]: 0
Plant response rating, Wheat [10, 20]: 0
Wheat plant response rating [10, 21]: 0
Wheat plant response rating [10, 22]: 0
Pigweed plant response rating [11, 15]: 70
Plant response rating, Pigweed [11, 16]: 95
Plant response rating, Pigweed [11, 17]: 100
Plant response rating, Pigweed [11, 18]: 90
Plant response rating, Pigweed [11, 19]: 100
Plant response rating, Pigweed [11, 20]: 100
Pigweed plant response rating [11, 21]: 100
Pigweed plant response rating [11, 22]: 85
Velvetleaf plant response rating [12, 15]: 65
Plant response rating, Velvetleaf [12, 16]: 95
Plant response rating, Velvetleaf [12, 17]: 95
Plant response rating, Velvetleaf [12, 18]: 55
Plant response rating, Velvetleaf [12, 19]: 80
Plant response rating, Velvetleaf [12, 20]: 85
Velvetleaf plant response rating [12, 21]: 90
Velvetleaf plant response rating [12, 22]: 85
Nutsedge, Yellow plant response rating [13, 15]: 20
Plant response rating, Nutsedge, Yellow [13, 16]: 55
Plant response rating, Nutsedge, Yellow [13, 17]: 65
Plant response rating, Nutsedge, Yellow [13, 18]: 10
Plant response rating, Nutsedge, Yellow [13, 19]: 20
Plant response rating, Nutsedge, Yellow [13, 20]: 20
Nutsedge, Yellow plant response rating [13, 21]: 65
Nutsedge, Yellow plant response rating [13, 22]: 40
Oat, Wild plant response rating [14, 15]: 50
Plant response rating, Oat, Wild [14, 16]: 65
Plant response rating, Oat, Wild [14, 17]: 85
Oat, Wild plant response rating [14, 22]: 60
Kochia plant response rating (kochia (Kochia scoparia); [15]): 50
Plant response rating, Kochia (kochia (Kochia scoparia); [16]): 55
Plant response rating, Kochia (kochia (Kochia scoparia); [17]): 90
Kochia plant response rating (kochia (Kochia scoparia); [22]): 55
